Results: the CheMixHub ionic liquid set

Assay: xn = mol fraction of the nth substance listed

CC[S+](CC)CCOCCOCC[S+](CC)CC.O=S(=O)([N-]S(=O)(=O)C(F)(F)F)C(F)(F)F.O=S(=O)([N-]S(=O)(=O)C(F)(F)F)C(F)(F)F + CC[n+]1ccn(C)c1.N#C[N-]C#N + O=S(=O)([N-]S(=O)(=O)C(F)(F)F)C(F)(F)F.[Li+]
100 kPa, x1 = 0.1539, x2 = 0.744
Settings | electrical conductivity [S/m]
298 K | 0.615
303 K | 0.691
313 K | 0.953
323 K | 1.22
333 K | 1.57
343 K | 1.93

Cc1ncc(C[n+]2csc(CCO)c2C)c(N)n1.Cl.[Cl-] + CC[n+]1ccn(C)c1.O=S(=O)([O-])O + O
viscosity [mPa·s], 100 kPa
Settings | x1 = 0.0002695, x2 = 0 | x1 = 0.0005398, x2 = 0 | x1 = 0.0008099, x2 = 0 | x1 = 0.00108, x2 = 0 | x1 = 0.00135, x2 = 0 | x1 = 0.00162, x2 = 0 | x1 = 0.001889, x2 = 0
293.15 K | 1.01 | 1.02 | 1.03 | 1.03 | 1.04 | 1.05 | 1.06
298.15 K | 0.9 | 0.91 | 0.92 | 0.93 | 0.93 | 0.94 | 0.95
303.15 K | 0.81 | 0.81 | 0.82 | 0.83 | 0.84 | 0.85 | 0.86
308.15 K | 0.73 | 0.73 | 0.74 | 0.75 | 0.76 | 0.76 | 0.77
313.15 K | 0.66 | 0.67 | 0.68 | 0.68 | 0.69 | 0.7 | 0.71
318.15 K | 0.61 | 0.61 | 0.62 | 0.63 | 0.64 | 0.64 | 0.65

CCCCCCCCCCCCOS(=O)(=O)[O-].[Na+] + CCCO + O
298 K, 100 kPa, frequency 0.001 MHz
Settings | electrical conductivity [S/m]
x2 = 0.01543, x1 = 3.435e-05 | 0.0146
x2 = 0.02615, x3 = 0.9738 | 0.033
x2 = 0.04737, x3 = 0.9525 | 0.0508
x2 = 0.07172, x3 = 0.9277 | 0.102
x2 = 0.07173, x3 = 0.9279 | 0.0751

298.15 K, 101 kPa
Settings | electrical conductivity [S/m]
x2 = 0, x1 = 3.24e-06 | 0.001447
x2 = 0, x1 = 8.11e-06 | 0.003433
x2 = 0, x1 = 1.64e-05 | 0.006697
x2 = 0, x1 = 2.505e-05 | 0.01006
x2 = 0, x1 = 2.991e-05 | 0.0119
x2 = 0, x1 = 3.478e-05 | 0.01378
x2 = 0, x1 = 3.964e-05 | 0.01564
x2 = 0, x1 = 5.063e-05 | 0.01999
x2 = 0, x1 = 6.198e-05 | 0.02434
x2 = 0, x1 = 7.406e-05 | 0.02896
x2 = 0, x1 = 8.09e-05 | 0.03151
x2 = 0, x1 = 8.667e-05 | 0.03369
x2 = 0, x1 = 9.135e-05 | 0.03548
x2 = 0, x1 = 9.694e-05 | 0.03753
x2 = 0, x1 = 0.0001016 | 0.03931
x2 = 0, x1 = 0.000107 | 0.04131
x2 = 0, x1 = 0.0001175 | 0.0452
x2 = 0, x1 = 0.0001223 | 0.047
x2 = 0, x1 = 0.0001268 | 0.04874
x2 = 0, x1 = 0.0001315 | 0.0504
x2 = 0, x1 = 0.0001364 | 0.05202
x2 = 0, x1 = 0.0001411 | 0.05353
x2 = 0, x1 = 0.0001454 | 0.05471
x2 = 0, x1 = 0.0001541 | 0.05656
x2 = 0, x1 = 0.0001586 | 0.05737
x2 = 0, x1 = 0.0001631 | 0.05814
x2 = 0, x1 = 0.0001692 | 0.05912
x2 = 0, x1 = 0.0001735 | 0.05977
x2 = 0, x1 = 0.000178 | 0.06043
x2 = 0, x1 = 0.0001825 | 0.06112
x2 = 0, x1 = 0.0001892 | 0.06206
x2 = 0, x1 = 0.0001935 | 0.06269
x2 = 0, x1 = 0.0002002 | 0.06378
x2 = 0, x1 = 0.0002048 | 0.06444
x2 = 0, x1 = 0.0002097 | 0.06508
x2 = 0, x1 = 0.000214 | 0.06575
x2 = 0.007626, x1 = 0.0004015 | 0.09227
x2 = 0.007627, x1 = 0.0002602 | 0.06737
x2 = 0.007627, x1 = 0.0002829 | 0.07143
x2 = 0.007627, x1 = 0.0003124 | 0.07668
x2 = 0.007627, x1 = 0.0003456 | 0.08254
x2 = 0.007628, x1 = 0.0001267 | 0.04228
x2 = 0.007628, x1 = 0.000135 | 0.04399
x2 = 0.007628, x1 = 0.0001447 | 0.04592
x2 = 0.007628, x1 = 0.0001683 | 0.05047
x2 = 0.007628, x1 = 0.0001845 | 0.05346
x2 = 0.007628, x1 = 0.0002013 | 0.05663
x2 = 0.007628, x1 = 0.0002199 | 0.06003
x2 = 0.007628, x1 = 0.0002404 | 0.06381
x2 = 0.007629, x1 = 1.192e-05 | 0.004556
x2 = 0.007629, x1 = 1.321e-05 | 0.005113
x2 = 0.007629, x1 = 1.651e-05 | 0.00628
x2 = 0.007629, x1 = 1.962e-05 | 0.007449
x2 = 0.007629, x1 = 2.274e-05 | 0.00856
x2 = 0.007629, x1 = 2.623e-05 | 0.009738
x2 = 0.007629, x1 = 2.934e-05 | 0.01087
x2 = 0.007629, x1 = 3.228e-05 | 0.01189
x2 = 0.007629, x1 = 3.595e-05 | 0.01317
x2 = 0.007629, x1 = 3.925e-05 | 0.01435
x2 = 0.007629, x1 = 4.255e-05 | 0.01551
x2 = 0.007629, x1 = 4.823e-05 | 0.0178
x2 = 0.007629, x1 = 5.135e-05 | 0.0189
x2 = 0.007629, x1 = 5.465e-05 | 0.02006
x2 = 0.007629, x1 = 5.795e-05 | 0.02124
x2 = 0.007629, x1 = 6.474e-05 | 0.02366
x2 = 0.007629, x1 = 6.804e-05 | 0.02483
x2 = 0.007629, x1 = 7.152e-05 | 0.02603
x2 = 0.007629, x1 = 7.464e-05 | 0.02715
x2 = 0.007629, x1 = 7.776e-05 | 0.02824
x2 = 0.007629, x1 = 8.088e-05 | 0.02934
x2 = 0.007629, x1 = 8.418e-05 | 0.03045
x2 = 0.007629, x1 = 8.95e-05 | 0.03235
x2 = 0.007629, x1 = 9.426e-05 | 0.03397
x2 = 0.007629, x1 = 9.995e-05 | 0.03577
x2 = 0.007629, x1 = 0.0001049 | 0.03716
x2 = 0.007629, x1 = 0.0001146 | 0.03955
x2 = 0.01553, x1 = 4.687e-05 | 0.01553
x2 = 0.01553, x1 = 5.322e-05 | 0.01769
x2 = 0.01553, x1 = 7.282e-05 | 0.0238
x2 = 0.01553, x1 = 7.842e-05 | 0.02558
x2 = 0.01553, x1 = 8.757e-05 | 0.02822
x2 = 0.01553, x1 = 9.765e-05 | 0.03081
x2 = 0.01553, x1 = 0.0001083 | 0.03351
x2 = 0.01553, x1 = 0.0001201 | 0.03619
x2 = 0.01553, x1 = 0.0001298 | 0.03847
x2 = 0.01553, x1 = 0.0001533 | 0.04391
x2 = 0.01553, x1 = 0.0001677 | 0.04711
x2 = 0.01553, x1 = 0.0001815 | 0.05015
x2 = 0.01553, x1 = 0.0001979 | 0.05361
x2 = 0.01553, x1 = 0.0002319 | 0.06058
x2 = 0.01553, x1 = 0.0002511 | 0.06442
x2 = 0.01553, x1 = 0.0002703 | 0.06822
x2 = 0.01553, x1 = 0.0002877 | 0.0716
x2 = 0.01553, x1 = 0.0003082 | 0.07551
x2 = 0.01554, x1 = 5.98e-06 | 0.002351
x2 = 0.01554, x1 = 1.176e-05 | 0.004274
x2 = 0.01554, x1 = 1.811e-05 | 0.006392
x2 = 0.01554, x1 = 2.428e-05 | 0.008288
x2 = 0.01554, x1 = 2.894e-05 | 0.009768
x2 = 0.01554, x1 = 3.492e-05 | 0.01173
